The numbers were not newly measured in patent publication US20170095494A1, “Process for the Extraction of Strawberry P-Coumaroyl Hexose and/or Polyphenols, Extract and Uses Thereof” (Nutra Canada Inc., priority 2014, published 2017), which cites them from elsewhere.

For the data set, the system named is AMPK. The settings on record: Bhattacharya et al, 2013, Yoon et al.

`O=C(O)/C=C/c1ccc(O)cc1` [p-coumaric acid]: the “impact on AMPK and glucose uptake in muscle cells” value is given as “increased glucose uptake”.
